Test results reported in patent US11396535B2, “Cyclic peptide analogs of melanocortin and amanitin and methods of making such” (THE UNIVERSITY OF BRITISH COLUMBIA, priority 2019, dated 2022).
Starred links: 1 amine or outer side, 2 acyl side, 3 side chain; linkers in the order of their positions; H or OH if unused. Positions of bridges follow the written chain, without caps; N, C: chain ends. Non-standard residues stand in square brackets, D forms with d. Residues, ends and D or L forms follow the SMILES beside them. ξ: configuration not given here. Ile(4R-OH,5-OH) = C[C@H]([C@H](N)C(=O)O)[C@@H](O)CO; X1 = O=C([C@H](Cn1cc2ccccc2c1[*:3])N[*:1])[*:2]; Hyp = O=C(O)[C@@H]1C[C@@H](O)CN1; Dap = NC[C@H](N)C(=O)O; ξC = NC(CS)C(=O)O

Columns and labels:
[1] = system: CHO cells; format: cell-based; conditions: for toxicity (cytotoxicity): triplicate
Description: FIG. 6: Cytotoxicity assays—CHO cells were incubated with α-amanitin, the monocyclic octapeptide precursor and the FlICk-amanitin-1 for 72 h in triplicate and cell viability was assessed by spectrophotometry with MTT indicator.
FIGS. 11A-11B: MTT cell viability assay against CHO cells: (A) alpha-amanitin; (B) FlICk-amanitin.
Both FlICk amanitin and authentic α-amanitin (purchased from Sigma Aldrich) were dissolved in H2O. The FlICk amanitin concentrations used were 100 μM, 20 μM, 4 μM, 0.8 μM, 0.16 μM, 0.032 μM, 0.0064 μM, 0.00128 μM. The α-amanitin concentrations used were 10 μM, 2 μM, 0.4 μM, 0.08 μM, 0.016 μM, 0.0032 μM, 0.00064 μM, 0.000128 μM, 0.0000256 μM. The cell culture and MTT assay procedures were carried out as per our report on the total synthesis of α-amanitin^38. The MTT assays were run in triplicate. The IC50 assay curves were produced using Prism Software.

[2] = target: melanocortin receptors; conditions: literature value; cited from earlier work
[3] = system: CHO cells; conditions: literature value, read-out: IC50 (cytotoxic to CHO cells); cited from earlier work

CC[C@H](C)[C@@H]1NC(=O)CNC(=O)[C@@H]2Cn3cc4ccccc4c3SCC(NC(=O)CNC1=O)C(=O)N[C@@H](CC(N)=O)C(=O)N1C[C@H](O)C[C@H]1C(=O)N[C@@H]([C@@H](C)[C@@H](O)CO)C(=O)N2 [FlICk-amanitin-1] (cyclo(GIG[ξC]N[Hyp][Ile(4R-OH,5-OH)][X1]); thioether 4-8)
fold less toxic than α-amanitin ([1]; 72 h, MTT): approximately 100 fold | toxicity (cytotoxicity) ([1]; 72 h, MTT): detectable toxicity | fold less toxic than dideoxy-amanitin ([1]; versus dideoxy-amanitin IC50 of 2 μM): 20 fold

CC[C@H](C)[C@@H]1NC(=O)CNC(=O)[C@H](CN)NC(=O)[C@H]([C@@H](C)[C@@H](O)CO)NC(=O)[C@@H]2C[C@@H](O)CN2C(=O)[C@H](CC(N)=O)NC(=O)[C@H](CS)NC(=O)CNC1=O [monocyclic octapeptide precursor, Cyclo-[DhIle-Dap-Gly-Ile-Gly-Cys-Asn-Hyp]] (cyclo(CN[Hyp][Ile(4R-OH,5-OH)][Dap]GIG))
toxicity (cytotoxicity) ([1]; 72 h, MTT): no detectable toxicity

N-Acetyl-L-norleucyl-L-α-aspartyl-L-histidyl-D-phenylalanyl-L-arginyl-L-tryptophyl-L-lysinamide (2→7)-lactam [Melanotan-II]
Kd [2]: ~1 nM

α-amanitin
IC50 [3]: ~500 nM
